The values that follow are results of earlier work, collected in patent US12324860B2, “Methods of treating central nervous system disorders via administration of nanoparticles of an mTOR inhibitor and an albumin” (Abraxis BioScience, LLC, priority 2018, dated 2025).

For data set [1] the following is noted: in vivo.
The conditions of data set [2]: retrospective analysis (Lorgis et al. 2012).
For data set [3] the following is noted: preclinical studies.

Like-named read-outs stand apart in the source and are kept apart here.

With `COc1ccc(COc2cc3oc(=O)c4cc(C(C)O)ccc4c3cc2OC)cc1` (stereo not shown) [Palomid 529], in the data set with ABCB1/ABCG2, the “affinity for ABCB1/ABCG2” value is “lacks affinity”. The brain penetration result in data set [1] is “good brain penetration”.

Take “bevacizumab: recombinant humanized anti-VEGF antibody”: in data set [2], the “PFS and OS with low dose intensity (<5 mg/kg/week) versus normal dose intensity at 10 mg/kg” value was “improved PFS and OS”.

Regarding `CO[C@H]1C[C@@H]2CC[C@@H](C)[C@@](O)(O2)C(=O)C(=O)N2CCCC[C@H]2C(=O)O[C@H]([C@H](C)C[C@@H]2CC[C@@H](OCCO)[C@H](OC)C2)CC(=O)[C@H](C)/C=C(\C)[C@@H](O)[C@@H](OC)C(=O)[C@H](C)C[C@H](C)/C=C/C=C/C=C/1C` [everolimus], the brain penetration result in data set [3] was “poor brain penetration”.
